Results as given in ChEMBL document CHEMBL1138986, “Novel bifunctional quinolonyl diketo acid derivatives as HIV-1 integrase inhibitors: design, synthesis, biological activities, and mechanism of action” (J Med Chem, 2006).

Legend:
[1] = biological target: T1, Human immunodeficiency virus type 1 integrase (Human immunodeficiency virus 1, UniProt Q7ZJM1); experiment: Inhibition of HIV1 integrase strand transfer activity in presence of MgCl2 by gel-based assay
[2] = tested on: U-937; experiment: Cytotoxicity against U937 cell line; format: functional; details: Homo sapiens
[3] = biological target: T1, Human immunodeficiency virus type 1 integrase; experiment: Inhibition of HIV1 integrase strand transfer activity in presence of MgCl2 by plate-based electrochemiluminescent assay
[4] = biological target: T1, Human immunodeficiency virus type 1 integrase; experiment: Inhibition of HIV1 integrase 3'-processing activity in presence of MnCl2
[5] = tested on: Human immunodeficiency virus 1; experiment: Antiviral activity against HIV1 3B; format: functional, organism-based; details: Human immunodeficiency virus 1, 3B
[6] = biological target: T1, Human immunodeficiency virus type 1 integrase; experiment: Inhibition of HIV1 integrase strand transfer activity in presence of MnCl2
[7] = tested on: U-937; experiment: Selectivity index (CC50/EC50); format: functional
[8] = biological target: T1, Human immunodeficiency virus type 1 integrase; experiment: Inhibition of HIV1 integrase 3'-processing activity in presence of MgCl2

T1 sequence (Q7ZJM1 whole entry): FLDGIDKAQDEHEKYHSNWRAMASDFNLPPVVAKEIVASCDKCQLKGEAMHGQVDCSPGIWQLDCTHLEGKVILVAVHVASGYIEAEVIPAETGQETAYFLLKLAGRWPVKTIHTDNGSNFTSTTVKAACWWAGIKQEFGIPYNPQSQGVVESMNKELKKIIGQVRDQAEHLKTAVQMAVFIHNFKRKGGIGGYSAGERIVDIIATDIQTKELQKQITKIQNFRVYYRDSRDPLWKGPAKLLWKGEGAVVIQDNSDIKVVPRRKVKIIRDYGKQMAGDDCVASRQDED

IC50 [1] [µM]	IC50 [3] [µM]	IC50 [4] [µM]	EC50 [5] [µM]	IC50 [6] [µM]	IC50 [8] [µM]	SMILES	CC50 [2] [µM]	Selectivity index [7]
0.29	0.38	40	20	0.25	21	CCOC(=O)C(=O)/C=C(\O)c1ccc2c(c1)c(=O)c(/C(O)=C/C(=O)C(=O)OCC)cn2Cc1ccc(F)cc1	191	9.6
–	–	–	–	–	–	O=C(O)C(=O)/C=C(\O)c1ccc2c(c1)c(=O)c(/C(O)=C/C(=O)C(=O)O)cn2Cc1ccc(F)cc1	> 200	–
2.9	9.1	> 4.1	36.3	0.43	22	O=C(O)C(=O)/C=C(\O)c1ccc2ncc(/C(O)=C/C(=O)C(=O)O)c(O)c2c1	> 200	5.5
39	77	> 333	> 50	80	28	CCOC(=O)C(=O)/C=C(\O)c1ccc2ncc(/C(O)=C/C(=O)C(=O)OCC)c(O)c2c1	> 200	–
